How the values were obtained:
[1] = Measurement of mRNA encapsulation in lipid nanoparticles (Quant-iT Ribogreen); format: physicochemical; conditions: LNP cationic lipid/DSPC/cholesterol/stealth lipid, N:P 4:1, leptin mRNA
Protocol: All equipment and disposable supplies are certified free of RNase activity by the manufacturer or rendered RNase free by use of the RNaseZap reagent (LifeTechnologies). mRNA is encapsulated at a cationic lipid amine to mRNA phosphate (N:P) molar ratio of 4:1. Lipids (cationic lipid, DSPC, cholesterol and lipidated PEG or stealth lipid) are dissolved in ethanol. The molar ratios are 40:10:38:2, respectively. The mixture is sonicated briefly, then gently agitated for 5 minutes and then maintained at 37° C. until use. mRNA is exchanged into citrate buffer pH 5.8-6.0 by use of Amicon Ultra-15 centrifugal concentrators, and the final concentration is adjusted to 0.5 mg/ml and held at 37° C. until use. An equal volume of lipids in ethanol, mRNA in citrate buffer, and citrate buffer alone are drawn into disposable syringes. Tubing leading from syringes containing lipids and mRNA are attached to the T junction, and tubing leading from the syringe containing citrate buffer alone is paired with the tubing exiting the T-junction over a collection vessel containing a stir bar on an active stir plate. Syringes are placed in a syringe pump set to expel contents at a flow rate of 1 ml per minute.
The pump is activated, and the collected mRNA in lipid nanoparticles is transferred to SnakeSkin dialysis tubing (10,000 MWCO, Thermo Scientific). Material is dialyzed against RNAse- and pyrogen-free 1× phosphate buffered saline overnight at 4° C.
Percent encapsulation of mRNA in lipid nanoparticles is determined using the Quant-iT Ribogreen RNA Assay kit (Life Technologies). The LNP-mRNA suspension is assayed in buffer (mRNA outside the particle), and buffer plus Triton X-100 detergent (total mRNA). The difference calculated is the mRNA inside the particle. Prepare a 1000 ng/mL stock from the RNA provided in the kit and use this to generate a standard curve (0 ng/ml, 15.63-1000 ng/ml) in TE and TE+0.75% Triton X-100. Prepare LNP-mRNA samples in TE buffer and TE buffer+0.75% Triton X-100 with appropriate dilution so that reading is in the range of standard curve (400-2,000 fold). In a 384-well plate (Costar non-treated #3573) add 0.04 ml of standard (in duplicate) or sample (in triplicate) per well. Dilute Ribogreen reagent 240-fold in TE buffer and add 0.06 ml per well. Mix contents of wells and measure fluorescence (excitation=480 nm, emission=520 nm). Subtract background values (no RNA) from standard and test sample values and determine the concentrations of RNA in the samples using the standard curves. Determine the percent encapsulation of the sample by dividing the difference in concentrations between sample+triton and sample in buffer alone by the sample+triton concentration.

[2] = Characterization of LNP formulations: Z average particle diameter and polydispersity index; format: physicochemical; conditions: LNP formulation; for Zav (nm): Z average particle diameter; for polydispersity: polydispersity index
Excerpt: The lipid nanoparticles have a size of about 1 to about 2,500 nm, about 1 to about 1,500 nm, about 1 to about 1,000 nm, in a sub-embodiment about 50 to about 600 nm, in a sub-embodiment about 50 to about 400 nm, in a sub-embodiment about 50 to about 250 nm, and in a sub-embodiment about 50 to about 150 nm. Unless indicated otherwise, all sizes referred to herein are the average sizes (diameters) of the fully formed nanoparticle, as measured by dynamic light scattering on a Malvern Zetasizer. The nanoparticle sample is diluted in phosphate buffered saline (PBS) so that the count rate is approximately 200-400 kcts. The data is presented as a weighted average of the intensity measure.

RSV F protein = format: in vivo; conditions: Table 4; BALB/c mice, intramuscular, 1 ng vA375 replicon in LNP, days 0 and 21
[3] = Encapsulation efficiency of RNA replicons (Quant-iT RiboGreen); format: physicochemical; conditions: LNP 40% cationic lipid, 10% DSPC, 48% cholesterol, 2% PEG-DMG; RNA replicon
Protocol: Briefly, lipids were dissolved in ethanol (2m1), a RNA replicon was dissolved in buffer (2 ml, 100 mM sodium citrate, pH 6) and these were mixed with 2 ml of buffer followed by 1 hour of equilibration. The mixture was then dialized overnight against 1×PBS. The resulting product contained liposomes, with ˜70-95% encapsulation efficiency.
The percentage of encapsulated RNA and RNA concentration were determined by Quant-iT RiboGreen RNA reagent kit (Invitrogen), following manufacturer's instructions. The ribosomal RNA standard provided in the kit was used to generate a standard curve. LNPs were diluted 10× or 100× in 1× TE buffer (from kit) before addition of the dye. Separately, LNPs were diluted 10× or 100× in 1× TE buffer containing 0.5% Triton X before addition of the dye (to disrupt the LNPs and thus to assay total RNA). Thereafter an equal amount of dye was added to each solution and then ˜180 μL of each solution after dye addition was loaded in duplicate into a 96 well tissue culture plate. The fluorescence (Ex 485 nm, Em 528 nm) was read on a microplate reader. All LNP formulations were dosed in vivo based on the encapsulated amount of RNA.

SMILES	% encapsulation (mRNA Leptin) [1]	Zav (nm) [2]	polydispersity [2]	Log10(IgG titer), 1 ng RNA (RSV-F), 2 weeks post 2nd immunization (RSV F protein)	Encapsulation efficiency (RNA %) [3]
CCCCC/C=C\C/C=C\CCCCCCCCOc1cc(COC(=O)CCCN(C)C)c(OCCCCCCCC/C=C\C/C=C\CCCCC)cc1C [Example 16, 4-methyl-2,5-bis((9Z,12Z)-octadeca-9,12-dien-1-yloxy)benzyl 4-(dimethylamino)butanoate]	85.1%	115.5 nm	0.108	4.40	88.0%
CCCCC/C=C\C/C=C\CCCCCCCCOc1ccc(COC(=O)CCCN(C)C)c(OCCCCCCCC/C=C\C/C=C\CCCCC)c1 [Example 19, 2,4-bis((9Z,12Z)-octadeca-9,12-dienyloxy)benzyl 4-(dimethylamino)butanoate]	84.3%	133.2 nm	0.074	4.68	79.9%
